From patent US8802597B2, “Herbicidal pyrimidines” (E I du Pont de Nemours and Company, priority 2003, dated 2014)

Legend:
Format in all cases: in vivo
[1] = tested on: ducksalad (Heteranthera limosa); experiment: Test E flooded paddy water application; details: Flood, 21 days, scale 0 to 100 (0 no effect, 100 complete control); for Plant response rating, Ducksalad: 16 g ai/ha
Method in brief: (§1)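 Greenhouse pots of Tama silt loam with weeds and rice at 2.0–2.5-leaf stage, flooded to 3 cm; compounds applied directly into paddy water, depth maintained. Visual rating versus untreated controls after 21 days, 0 (no effect) to 100 (complete control); 29.5/26.7 °C, 16-h photoperiod.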

[2] = tested on: early watergrass (Echinochloa oryzoides); experiment: Test E flooded paddy water application; details: Flood, 21 days, scale 0 to 100 (0 no effect, 100 complete control); for Plant response rating, Watergrass, Early: 16 g ai/ha
Method in brief: as §1

[3] = tested on: smallflower umbrella sedge (Cyperus difformis); experiment: Test E flooded paddy water application; details: Flood, 21 days, scale 0 to 100 (0 no effect, 100 complete control); for Plant response rating, Sedge, Umbrella: 16 g ai/ha
Method in brief: as §1

[4] = tested on: water seeded rice seedlings (Oryza sativa cv. ‘Japonica-M202’); experiment: Test E flooded paddy water application; details: Flood, 21 days, scale 0 to 100 (0 no effect, 100 complete control); for Plant response rating, Rice, Water Seeded: 16 g ai/ha
Method in brief: as §1

[5] = tested on: late watergrass (Echinochloa oryzicola); experiment: Test E flooded paddy water application; details: Flood, 21 days, scale 0 to 100 (0 no effect, 100 complete control); for Plant response rating, Watergrass, Late: 16 g ai/ha
Method in brief: as §1

[6] = tested on: junglerice (Echinochloa colona); experiment: Test E flooded paddy water application; details: Flood, 21 days, scale 0 to 100 (0 no effect, 100 complete control); for Plant response rating, Junglerice: 16 g ai/ha
Method in brief: as §1

[7] = tested on: purple redstem (Ammannia coccinea); experiment: Test E flooded paddy water application; details: Flood, 21 days, scale 0 to 100 (0 no effect, 100 complete control); for Plant response rating, Redstem: 16 g ai/ha
Method in brief: as §1

[8] = tested on: barnyardgrass (Echinochloa crus-galli); experiment: Test E flooded paddy water application; details: Flood, 21 days, scale 0 to 100 (0 no effect, 100 complete control); for Plant response rating, Barnyardgrass: 16 g ai/ha
Method in brief: as §1

[9] = tested on: transplanted rice seedlings (Oryza sativa cv. ‘Japonica-M202’); experiment: Test E flooded paddy water application; details: Flood, 21 days, scale 0 to 100 (0 no effect, 100 complete control); for Plant response rating, Rice, Transplanted: 16 g ai/ha
Method in brief: as §1

[10] = tested on: rice flatsedge (Cyperus iria); experiment: Test E flooded paddy water application; details: Flood, 21 days, scale 0 to 100 (0 no effect, 100 complete control); for Plant response rating, Flatsedge, Rice: 16 g ai/ha
Method in brief: as §1

[11] = tested on: bearded (brdd.) sprangletop (Leptochloa fusca ssp. fascicularis); experiment: Test E flooded paddy water application; details: Flood, 21 days, scale 0 to 100 (0 no effect, 100 complete control); for Plant response rating, Sprangletop, Brdd.: 16 g ai/ha
Method in brief: as §1

[12] = tested on: morningglory (Ipomoea spp.); experiment: Test A pre/postemergence
Method in brief: (§2)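 Seeds sown in loam–sand blend received a preemergence directed soil spray of test chemical in non-phytotoxic solvent with surfactant; same-formulation postemergence spray given concurrently to plants 2–10 cm tall at 1- to 2-leaf stage. Greenhouse ~ten days, then visual injury rating versus untreated controls, 0 (no effect) to 100 (complete control).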

[13] = tested on: redroot pigweed (Amaranthus retroflexus); experiment: Test A pre/postemergence
Method in brief: as §2

[14] = tested on: crabgrass (Digitaria sanguinalis); experiment: Test A pre/postemergence
Method in brief: as §2

[15] = tested on: giant foxtail (Setaria faberi); experiment: Test A pre/postemergence
Method in brief: as §2

[16] = tested on: velvetleaf (Abutilon theophrasti); experiment: Test A pre/postemergence
Method in brief: as §2

[17] = tested on: barnyardgrass (Echinochloa crus-galli); experiment: Test A pre/postemergence
Method in brief: as §2

[18] = Postemergence, 125 g ai/ha, 0 to 100 scale (0 no effect, 100 complete control)
[19] = Postemergence, 500 g ai/ha, 0 to 100 scale (0 no effect, 100 complete control)
[20] = Preemergence, 125 g ai/ha, 0 to 100 scale where 0 is no effect and 100 is complete control, approximately ten days
[21] = Preemergence, 500 g ai/ha, 0 to 100 scale where 0 is no effect and 100 is complete control, approximately ten days

CCOC(=O)c1nc(-c2ccc(OC)cc2)nc(N)c1Cl [Compound 98]
Ducksalad plant response rating ([1]; 32 g ai/ha): 100
Ducksalad plant response rating ([1]; 64 g ai/ha): 100
Ducksalad plant response rating ([1]; 125 g ai/ha): 100
Ducksalad plant response rating ([1]; 250 g ai/ha): 100
Plant response rating, Ducksalad [1]: 0
Watergrass, Early plant response rating ([2]; 32 g ai/ha): 0
Watergrass, Early plant response rating ([2]; 64 g ai/ha): 0
Watergrass, Early plant response rating ([2]; 125 g ai/ha): 0
Watergrass, Early plant response rating ([2]; 250 g ai/ha): 0
Plant response rating, Watergrass, Early [2]: 0
Sedge, Umbrella plant response rating ([3]; 32 g ai/ha): 60
Sedge, Umbrella plant response rating ([3]; 64 g ai/ha): 60
Sedge, Umbrella plant response rating ([3]; 125 g ai/ha): 60
Sedge, Umbrella plant response rating ([3]; 250 g ai/ha): 60
Plant response rating, Sedge, Umbrella [3]: 60
Rice, Water Seeded plant response rating ([4]; 32 g ai/ha): 0
Rice, Water Seeded plant response rating ([4]; 64 g ai/ha): 0
Rice, Water Seeded plant response rating ([4]; 125 g ai/ha): 0
Rice, Water Seeded plant response rating ([4]; 250 g ai/ha): 0
Plant response rating, Rice, Water Seeded [4]: 0
Watergrass, Late plant response rating ([5]; 32 g ai/ha): 0
Watergrass, Late plant response rating ([5]; 64 g ai/ha): 0
Watergrass, Late plant response rating ([5]; 125 g ai/ha): 0
Watergrass, Late plant response rating ([5]; 250 g ai/ha): 0
Plant response rating, Watergrass, Late [5]: 0
Junglerice plant response rating ([6]; 32 g ai/ha): 0
Junglerice plant response rating ([6]; 64 g ai/ha): 0
Junglerice plant response rating ([6]; 125 g ai/ha): 0
Junglerice plant response rating ([6]; 250 g ai/ha): 0
Plant response rating, Junglerice [6]: 0
Redstem plant response rating ([7]; 32 g ai/ha): 0
Redstem plant response rating ([7]; 64 g ai/ha): 0
Redstem plant response rating ([7]; 125 g ai/ha): 40
Redstem plant response rating ([7]; 250 g ai/ha): 40
Plant response rating, Redstem [7]: 0
Barnyardgrass plant response rating ([8]; 32 g ai/ha): 0
Barnyardgrass plant response rating ([8]; 64 g ai/ha): 0
Barnyardgrass plant response rating ([8]; 125 g ai/ha): 0
Barnyardgrass plant response rating ([8]; 250 g ai/ha): 0
Plant response rating, Barnyardgrass [8]: 0
Rice, Transplanted plant response rating ([9]; 32 g ai/ha): 0
Rice, Transplanted plant response rating ([9]; 64 g ai/ha): 0
Rice, Transplanted plant response rating ([9]; 125 g ai/ha): 0
Rice, Transplanted plant response rating ([9]; 250 g ai/ha): 0
Plant response rating, Rice, Transplanted [9]: 0
Flatsedge, Rice plant response rating ([10]; 32 g ai/ha): 80
Flatsedge, Rice plant response rating ([10]; 64 g ai/ha): 100
Flatsedge, Rice plant response rating ([10]; 125 g ai/ha): 100
Flatsedge, Rice plant response rating ([10]; 250 g ai/ha): 100
Plant response rating, Flatsedge, Rice [10]: 80
Sprangletop, Brdd. plant response rating ([11]; 32 g ai/ha): 0
Sprangletop, Brdd. plant response rating ([11]; 64 g ai/ha): 0
Sprangletop, Brdd. plant response rating ([11]; 125 g ai/ha): 0
Sprangletop, Brdd. plant response rating ([11]; 250 g ai/ha): 0
Plant response rating, Sprangletop, Brdd. [11]: 0
Plant response rating, Morningglory [12, 18]: 0
Plant response rating, Morningglory [12, 19]: 0
Plant response rating, Morningglory [12, 20]: 0
Plant response rating, Morningglory [12, 21]: 0
Plant response rating, Pigweed [13, 18]: 5
Plant response rating, Pigweed [13, 19]: 15
Plant response rating, Pigweed [13, 20]: 0
Plant response rating, Pigweed [13, 21]: 0
Plant response rating, Crabgrass [14, 18]: 0
Plant response rating, Crabgrass [14, 19]: 10
Plant response rating, Crabgrass [14, 20]: 0
Plant response rating, Crabgrass [14, 21]: 15
Plant response rating, Foxtail, Giant [15, 18]: 0
Plant response rating, Foxtail, Giant [15, 19]: 15
Plant response rating, Foxtail, Giant [15, 20]: 0
Plant response rating, Foxtail, Giant [15, 21]: 0
Plant response rating, Velvetleaf [16, 18]: 35
Plant response rating, Velvetleaf [16, 19]: 45
Plant response rating, Velvetleaf [16, 20]: 0
Plant response rating, Velvetleaf [16, 21]: 5
Plant response rating, Barnyardgrass [17, 18]: 0
Plant response rating, Barnyardgrass [17, 19]: 20
Plant response rating, Barnyardgrass [17, 20]: 0
Plant response rating, Barnyardgrass [17, 21]: 0

Nc1nc(-c2ccc(Cl)cc2)nc(C(=O)OCc2ccccc2)c1Cl [Compound 118]
Ducksalad plant response rating ([1]; 32 g ai/ha): 100
Ducksalad plant response rating ([1]; 64 g ai/ha): 100
Ducksalad plant response rating ([1]; 125 g ai/ha): 100
Ducksalad plant response rating ([1]; 250 g ai/ha): 100
Plant response rating, Ducksalad [1]: 100
Watergrass, Early plant response rating ([2]; 32 g ai/ha): 0
Watergrass, Early plant response rating ([2]; 64 g ai/ha): 0
Watergrass, Early plant response rating ([2]; 125 g ai/ha): 0
Watergrass, Early plant response rating ([2]; 250 g ai/ha): 0
Plant response rating, Watergrass, Early [2]: 0
Sedge, Umbrella plant response rating ([3]; 32 g ai/ha): 95
Sedge, Umbrella plant response rating ([3]; 64 g ai/ha): 100
Sedge, Umbrella plant response rating ([3]; 125 g ai/ha): 100
Sedge, Umbrella plant response rating ([3]; 250 g ai/ha): 100
Plant response rating, Sedge, Umbrella [3]: 85
Rice, Water Seeded plant response rating ([4]; 32 g ai/ha): 0
Rice, Water Seeded plant response rating ([4]; 64 g ai/ha): 0
Rice, Water Seeded plant response rating ([4]; 125 g ai/ha): 0
Rice, Water Seeded plant response rating ([4]; 250 g ai/ha): 0
Plant response rating, Rice, Water Seeded [4]: 0
Watergrass, Late plant response rating ([5]; 32 g ai/ha): 0
Watergrass, Late plant response rating ([5]; 64 g ai/ha): 0
Watergrass, Late plant response rating ([5]; 125 g ai/ha): 0
Watergrass, Late plant response rating ([5]; 250 g ai/ha): 0
Plant response rating, Watergrass, Late [5]: 0
Junglerice plant response rating ([6]; 32 g ai/ha): 40
Junglerice plant response rating ([6]; 64 g ai/ha): 45
Junglerice plant response rating ([6]; 125 g ai/ha): 65
Junglerice plant response rating ([6]; 250 g ai/ha): 65
Plant response rating, Junglerice [6]: 0
Redstem plant response rating ([7]; 32 g ai/ha): 20
Redstem plant response rating ([7]; 64 g ai/ha): 30
Redstem plant response rating ([7]; 125 g ai/ha): 50
Redstem plant response rating ([7]; 250 g ai/ha): 85
Plant response rating, Redstem [7]: 0
Barnyardgrass plant response rating ([8]; 32 g ai/ha): 0
Barnyardgrass plant response rating ([8]; 64 g ai/ha): 0
Barnyardgrass plant response rating ([8]; 125 g ai/ha): 0
Barnyardgrass plant response rating ([8]; 250 g ai/ha): 0
Plant response rating, Barnyardgrass [8]: 0
Rice, Transplanted plant response rating ([9]; 32 g ai/ha): 0
Rice, Transplanted plant response rating ([9]; 64 g ai/ha): 0
Rice, Transplanted plant response rating ([9]; 125 g ai/ha): 0
Rice, Transplanted plant response rating ([9]; 250 g ai/ha): 0
Plant response rating, Rice, Transplanted [9]: 0
Flatsedge, Rice plant response rating ([10]; 32 g ai/ha): 95
Flatsedge, Rice plant response rating ([10]; 64 g ai/ha): 95
Flatsedge, Rice plant response rating ([10]; 125 g ai/ha): 95
Flatsedge, Rice plant response rating ([10]; 250 g ai/ha): 100
Plant response rating, Flatsedge, Rice [10]: 85
Sprangletop, Brdd. plant response rating ([11]; 32 g ai/ha): 0
Sprangletop, Brdd. plant response rating ([11]; 64 g ai/ha): 0
Sprangletop, Brdd. plant response rating ([11]; 125 g ai/ha): 70
Sprangletop, Brdd. plant response rating ([11]; 250 g ai/ha): 85
Plant response rating, Sprangletop, Brdd. [11]: 0
Plant response rating, Morningglory [12, 18]: 65
Plant response rating, Morningglory [12, 19]: 70
Plant response rating, Morningglory [12, 20]: 0
Plant response rating, Morningglory [12, 21]: 0
Plant response rating, Pigweed [13, 18]: 60
Plant response rating, Pigweed [13, 19]: 75
Plant response rating, Pigweed [13, 20]: 10
Plant response rating, Pigweed [13, 21]: 55
Plant response rating, Crabgrass [14, 18]: 10
Plant response rating, Crabgrass [14, 19]: 20
Plant response rating, Crabgrass [14, 20]: 10
Plant response rating, Crabgrass [14, 21]: 25
Plant response rating, Foxtail, Giant [15, 18]: 0
Plant response rating, Foxtail, Giant [15, 19]: 15
Plant response rating, Foxtail, Giant [15, 20]: 0
Plant response rating, Foxtail, Giant [15, 21]: 15
Plant response rating, Velvetleaf [16, 18]: 90
Plant response rating, Velvetleaf [16, 19]: 95
Plant response rating, Velvetleaf [16, 20]: 0
Plant response rating, Velvetleaf [16, 21]: 15
Plant response rating, Barnyardgrass [17, 18]: 0
Plant response rating, Barnyardgrass [17, 19]: 0
Plant response rating, Barnyardgrass [17, 20]: 0
Plant response rating, Barnyardgrass [17, 21]: 10
